Measurements from article PMC3517626, “Targeting Fatty Acid Binding Protein (FABP) Anandamide Transporters – A Novel Strategy for Development of Anti-Inflammatory and Anti-Nociceptive Drugs” (PLoS ONE, 2012).
In brackets after ≈: the same amount, converted by molar mass.

Columns and labels:
human FABP5 [1] = target: T1, human FABP5 (Homo sapiens, UniProt Q01469); details: cited from earlier work
T1 construct: FABP5 was purified and delipidated as described previously; made in house

human FABP5 [2] = target: T1, human FABP5; test: Fluorescence displacement assay with NBD-stearate; type: binding; details: test compound 10 µM, NBD-stearate 1 µM
Description: FABP5 was purified and delipidated as described previously. FABP5 (30 µg), NBD-stearate (1 µM), and a competitor test compound were incubated in 30 mM Tris-HCl, 100 mM NaCl buffer (pH 7.6). Competitors included arachidonic acid, BMS309403, 48 test compounds from ChemDiv library, SB-FI-26 and SB-FI-49. The initial assay was run with buffer (30 mM Tris-HCl buffer), negative controls (buffer and NBD-stearate), positive controls (buffer, NBD-stearate, FABP5), and experimental wells with a variable test compound added (arachidonic acid or one of the 48 test compounds) at 10 µM. […] The fluorescent assays were tested in the wells of Microtest 96-well Assay Plates, Optilux (BD Biosciences, Franklin Lakes, NJ) and loss of fluorescence intensity was measured with a FLUOstar OPTIMA spectrofluorometer set to excitation and emission wavelengths of 460 nm and 544 nm, respectively. […] The Kd of NBD-stearate for FABP5 had been determined previously through incubating FABP5 with increasing concentrations of NBD-stearate.

Solubility in DMSO = type: physicochemical; details: in DMSO at 25°C
male C57Bl6 mice [3] = test: Formalin test; type: in vivo
Description: (§1) We used male C57Bl6 mice (22–30 g, Taconic Farms) for all experiments. The animals were group housed at room temperature and kept on a 12∶12 hour light∶dark cycle with ad libitum access to water and food. The animals were habituated to the experimental room for one week before testing.
Mice were habituated to the observation chamber (Plexiglas box, 25 cm×25 cm×25 cm) for 30 min prior to formalin injection. The mice subsequently received an injection of formalin (2.5% in saline, 20 µl) into the plantar surface of the right hind paw using a 27 gauge needle. The animals were immediately placed back into the observation chamber and nocifensive behavior (time spent licking or biting the paw) was recorded for 60 min. The formalin test consists of two phases with the first phase (0–5 min) reflecting nociceptor activation and the second phase (15–45 min) reflecting an inflammatory pain response.

CB1 receptors = test: Patch-clamp electrophysiology in brain slices (EPSCs of dorsal raphe 5-HT neurons); type: cell-based; details: bath application 10 µM; DR 5-HT neurons; n = 8; mean ± SEM
Description: Whole-cell-voltage clamp recordings of dorsal raphe (DR) serotonin (5-HT) neurons were performed as previously described. Briefly, DR neurons were visualized using an upright microscope (BX 51 WI, Olympus, Tokyo, Japan) equipped with a differential interference contrast and infrared imaging system. Somatic recordings from DR neurons were obtained with path electrodes ([…]) back-filled with potassium gluconate based internal solution of the following composition: 120 mM potassium gluconate, 10 mM KCl, 10 mM Na2-phosphocreatine, 10 mM HEPES, 1 mM MgCl2, 1 mM EGTA, 2 mM Na2-ATP, 0.25 mM Na-GTP, pH 7.3 (Adjusted with KOH; Osmolarity, 280 to 290 mOsmol/l). All the recordings were conducted in the presence of GABAA receptor antagonist picrotoxin (100 µM). Excitatory postsynaptic currents (EPSCs) were evoked with a single square stimulus (intensity, 1 to 10 V, duration, 100 to 200 µs) delivered via a glass stimulating electrode. […]
The amplitude of EPSCs was determined by measuring the average current during a 2-ms period at the peak of each EPSC and subtracted from the baseline current determined during a 5-ms time window before the stimulus. All EPSC amplitudes were normalized to the mean baseline amplitude recorded for at least 10 min before drug application. […]

PPARγ = target: T2, PPARγ (Homo sapiens, UniProt P37231); test: PPARγ transactivation in HeLa cells; type: cell-based; details: reporter system, 6 hrs
T2 construct: expressed in transfected cells; host or cells: HeLa
T2 sequence (P37231 1-505): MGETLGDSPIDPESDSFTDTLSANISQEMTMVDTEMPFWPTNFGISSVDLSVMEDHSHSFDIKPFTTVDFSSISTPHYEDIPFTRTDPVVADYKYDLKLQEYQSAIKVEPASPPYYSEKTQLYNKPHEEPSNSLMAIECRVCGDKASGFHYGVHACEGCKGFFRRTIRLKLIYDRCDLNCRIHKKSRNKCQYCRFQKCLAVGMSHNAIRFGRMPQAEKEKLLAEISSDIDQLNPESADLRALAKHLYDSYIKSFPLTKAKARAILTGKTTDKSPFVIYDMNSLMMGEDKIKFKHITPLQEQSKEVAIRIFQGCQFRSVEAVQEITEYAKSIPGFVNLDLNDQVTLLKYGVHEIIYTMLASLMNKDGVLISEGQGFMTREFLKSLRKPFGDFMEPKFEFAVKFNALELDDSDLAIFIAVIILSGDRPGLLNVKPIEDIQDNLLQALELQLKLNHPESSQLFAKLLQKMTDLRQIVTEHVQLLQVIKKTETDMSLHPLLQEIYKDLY
Description: (§2) PPARα and PPARγ transactivation assays were performed in HeLa cells exactly as described. Briefly, cells were transfected with the PPAR reporter system, incubated with GW7647, rosiglitazone, or SB-FI-26 for 6 hrs, followed by measurement of luciferase and β-galactosidase activity using a luminometer as described.

rat FAAH = target: T3, rat FAAH (Rattus norvegicus, UniProt P97612); test: FAAH enzyme assay ([14C]AEA hydrolysis in HeLa homogenates); type: biochemical; details: FAAH-transfected HeLa homogenates
T3 construct: expressed in transfected cells; host or cells: HeLa (homogenates)
T3 sequence (P97612 1-579): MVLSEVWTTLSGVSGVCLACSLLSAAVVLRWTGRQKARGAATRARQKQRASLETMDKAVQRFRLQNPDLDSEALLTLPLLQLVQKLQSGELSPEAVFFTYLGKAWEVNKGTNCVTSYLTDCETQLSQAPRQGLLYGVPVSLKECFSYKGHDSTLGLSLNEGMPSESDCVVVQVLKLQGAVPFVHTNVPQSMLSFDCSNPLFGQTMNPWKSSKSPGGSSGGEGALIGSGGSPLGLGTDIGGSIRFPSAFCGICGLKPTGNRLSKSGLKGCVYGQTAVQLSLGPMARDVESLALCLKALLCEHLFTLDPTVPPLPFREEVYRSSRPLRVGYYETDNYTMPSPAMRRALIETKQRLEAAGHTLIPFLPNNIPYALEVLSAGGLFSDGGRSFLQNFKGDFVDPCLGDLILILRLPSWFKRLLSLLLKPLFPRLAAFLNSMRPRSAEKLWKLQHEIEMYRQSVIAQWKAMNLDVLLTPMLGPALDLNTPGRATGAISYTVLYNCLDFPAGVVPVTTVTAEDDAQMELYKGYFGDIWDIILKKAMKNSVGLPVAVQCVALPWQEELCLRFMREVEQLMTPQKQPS
Description: Enzyme assays measuring the hydrolysis of [^14C]AEA in the presence of SB-FI-26 or the FAAH inhibitor URB597 were carried out in HeLa homogenates expressing rat FAAH as described.

PPARα = target: T4, PPARα (Homo sapiens, UniProt Q07869); test: PPARα transactivation in HeLa cells; type: cell-based; details: reporter system, 6 hrs
T4 construct: expressed in transfected cells; host or cells: HeLa
T4 sequence (Q07869 1-468): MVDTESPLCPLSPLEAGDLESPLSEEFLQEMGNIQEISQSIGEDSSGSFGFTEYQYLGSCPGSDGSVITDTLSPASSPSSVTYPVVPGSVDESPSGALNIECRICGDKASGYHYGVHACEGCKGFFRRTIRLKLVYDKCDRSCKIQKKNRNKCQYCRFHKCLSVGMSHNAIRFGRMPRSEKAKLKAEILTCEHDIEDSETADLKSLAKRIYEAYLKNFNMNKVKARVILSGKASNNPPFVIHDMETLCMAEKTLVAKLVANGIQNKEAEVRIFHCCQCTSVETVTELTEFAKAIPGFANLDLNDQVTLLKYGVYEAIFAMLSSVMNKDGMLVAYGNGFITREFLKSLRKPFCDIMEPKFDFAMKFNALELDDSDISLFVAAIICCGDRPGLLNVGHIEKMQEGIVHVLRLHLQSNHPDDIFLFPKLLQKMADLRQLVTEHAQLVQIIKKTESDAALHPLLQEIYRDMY
Description: as §2

AEA uptake in HeLa cells = test: AEA uptake in HeLa cells; type: cell-based
Description: AEA uptake assays in wild-type and FABP5 knockdown HeLa cells were performed exactly as described.

male C57Bl6 mice [4] = test: Carrageenan-induced paw edema and thermal hyperalgesia; type: in vivo
Description: as §1
Paw edema was induced by injecting 1% λ-carrageenan (20 µl, in sterile saline) into the plantar surface of the left hind paw and a control solution of saline into the right hind paw using a 27 gauge needle. Paw diameters were measured before carrageenan injection and 4 hours after injection using digital electronic calipers (Fisher) and expressed to the nearest ±0.01 mm. SB-FI-26 (20 mg/kg, i.p.) was dissolved in ethanol∶emulphor∶saline (1∶1∶18), requiring sonication and gentle heating for solubilization, and administered 45 min prior to injection of carrageenan. The cannabinoid receptor antagonists, rimonabant and SR144528 (3 mg/kg, i.p.), in ethanol∶emulphor∶saline (1∶1∶18), were injected 15 min before the FABP inhibitor. Edema is reported as the change in paw diameter at 4 hr over the baseline. Changes in paw diameter of saline-injected contralateral paws were negligible. Thermal hyperalgesia measured the latency to withdraw the paw from a focused beam of radiant heat applied to the plantar surface of the hind paw using a Hargreaves plantar apparatus (Ugo Basile) set at an intensity of 3.0. For each mouse, the average latencies consisted of three trials spaced at least 5 minutes apart. The mice were habituated to the test chamber for 30 min. The cutoff time was set at 30 sec.

T1 sequence (Q01469 whole entry): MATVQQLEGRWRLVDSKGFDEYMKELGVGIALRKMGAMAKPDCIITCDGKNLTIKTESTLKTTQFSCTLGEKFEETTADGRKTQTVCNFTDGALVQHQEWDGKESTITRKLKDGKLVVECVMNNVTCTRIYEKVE

For `CCCCCCC(CCCCCCCCCCC(=O)O)N(C)c1ccc([N+](=O)[O-])c2nonc12` (centres unmarked) [NBD-stearate, 12-N-methyl-(7-nitrobenz-2-oxa-1,3-diazo)aminostearic acid], the Kd (human FABP5 [1]; one site binding analysis, determined previously, read-out: Kd of NBD-stearate for FABP5) is given as 160 nM.
`COc1cccc([C@@H]2Oc3ccccc3[C@@H]3CC(c4cccs4)=CN32)c1CC(=O)O` [SB-FI-19] gave an inhibition at 10 µM (human FABP5 [2]) of at least 50%.
For `Cn1c(C(=O)O)c(CC(=O)N2CCC(Cc3ccccc3)CC2)c2ccccc21` [SB-FI-31], the inhibition at 10 µM (human FABP5 [2]) was at least 50%.
`O=C(O)[C@H]1CC(=O)N(Cc2ccc3c(c2)OCO3)/C(=N/c2ccc(F)cc2)S1` [SB-FI-27] showed an inhibition at 10 µM (human FABP5 [2]) of at least 50%.
Work on `O=C(O)[C@H]1[C@@H](c2ccccc2)[C@H](C(=O)Oc2cccc3ccccc23)[C@@H]1c1ccccc1` [SB-FI-49, γ-Truxillic acid 1-naphthyl ester] yielded a solubility (Solubility in DMSO) of 200 µM (≈ 84.5 µg/mL).
For `CCCCC/C=C\C/C=C\C/C=C\C/C=C\CCCC(=O)O` [arachidonic acid], the Ki (human FABP5 [1]; arachidonic acid, positive control, binding to FABP5, ref not given) is given as 130 nM.
For `O=C(O)[C@H]1[C@@H](c2ccccc2)[C@H](C(=O)Oc2cccc3ccccc23)[C@@H]1c1ccccc1` [SB-FI-26, α-Truxillic acid 1-naphthyl ester], the “nocifensive behavior, first phase of the formalin test” value (male C57Bl6 mice [3]; 20 mg/kg, i.p., first phase 0–5 min) was “significantly reduced nocifensive behavior”, the “nocifensive behavior when administered alone” value (male C57Bl6 mice [3]; intraplantar injection of 20 µg, no formalin) was “did not evoke nocifensive behavior” and the “amplitude of EPSCs” value (CB1 receptors) was 107±6.7 % of baseline. The “activation of PPARγ” value (PPARγ) was about 3 fold, the “inhibition of FAAH (AEA hydrolysis)” value (rat FAAH) was “does not inhibit FAAH” and the solubility (Solubility in DMSO) was 1000 µM (≈ 422 µg/mL). The “activation of PPARα” value (PPARα) was about 2 fold, the AEA uptake (AEA uptake in HeLa cells; HeLa cells bearing a knockdown of FABP5 (shRNA)) was “failed to reduce AEA uptake” and the “cellular AEA accumulation (AEA uptake)” value (AEA uptake in HeLa cells; wild-type HeLa cells) was “significantly inhibited cellular AEA accumulation”. The carrageenan-induced thermal hyperalgesia (male C57Bl6 mice [4]; 20 mg/kg, i.p., 45 min prior to carrageenan) was “significantly reduced”, the carrageenan-induced paw edema (male C57Bl6 mice [4]; 20 mg/kg, i.p., 45 min prior to carrageenan, paw diameter at 4 hr) was “significantly reduced” and the “antinociceptive and anti-edematous effects after pretreatment with rimonabant and SR144528” value (male C57Bl6 mice [4]; SB-FI-26 20 mg/kg i.p., antagonists 3 mg/kg i.p. 15 min before) was “completely reversed”. The “paw edema when administered alone” value (male C57Bl6 mice [4]; without carrageenan) was “did not induce paw edema”.
Work on `CCc1c(-c2ccccc2)c(-c2ccccc2)nn1-c1ccccc1-c1cccc(OCC(=O)O)c1` [BMS309403, reference compound] yielded a solubility (Solubility in DMSO) of 1000 µM (≈ 475 µg/mL).
